Measured values reported in US11000033B2, “Ketone or oxime compound, and herbicide” (NISSAN CHEMICAL CORPORATION, priority 2014, dated 2021).

Columns and labels:
Type in all cases: in vivo
[1] = tested on: Echinochloa crus-galli var. crus-galli; experiment: Test Example 3: herbicidal effect by foliage application, Wagner pot (symbol H); details: application herbicide amount 320 g/ha
Procedure, shortened: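 In a shallow-flooded alluvial soil system held at 25–30 °C, plants including rice grew for 14 days and were then sprayed over the foliage with emulsion diluted to a fixed herbicide amount. Visual rating followed at 3 weeks.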

Veronica persica = experiment: Test Example 4: herbicidal effect by soil treatment (symbol R); details: application herbicide amount 320 g/ha
Procedure, shortened: (§1)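 Seeds were sown in sterilized diluvial soil, covered with about 1.5 cm of soil, and the soil surface was sprayed with a water-diluted emulsion of the compound at a predetermined rate. Plants grew in a greenhouse at 25° C. to 30° C.; effects were scored visually 3 weeks after application.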

wheat = experiment: Test Example 4: effect on crop by soil treatment (symbol e); details: application herbicide amount 320 g/ha
Procedure, shortened: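 Plants grew in a 25° C. to 30° C. greenhouse after spot-sowing of seeds, including beet, rapeseed, wheat and rice, into sterilized diluvial soil under roughly 1.5 cm of cover soil.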

[2] = tested on: directly sowed rice plant; experiment: Test Example 3: effect on crop by foliage application, Wagner pot (symbol b); details: application herbicide amount 320 g/ha
Procedure, shortened: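 Plants are raised from seed in flooded paddy conditions: water stands 0.1–0.5 cm over alluvial soil, and the pot is kept in a greenhouse at 25–30 °C. Species sown are barnyardgrass (E. crus-galli var. crus-galli), Leptochloa chinensis, Cyperus difformis and rice.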

Digitaria ciliaris [3] = experiment: Test Example 4: herbicidal effect by soil treatment (symbol F); details: application herbicide amount 320 g/ha
Procedure, shortened: as §1

Lolium multiflorum Lam. [4] = experiment: Test Example 4: herbicidal effect by soil treatment (symbol K); details: application herbicide amount 320 g/ha
Procedure, shortened: as §1

Abutilon theophrasti = experiment: Test Example 5: herbicidal effect by foliage application, plastic box (symbol M); details: 320 g/ha, 3 weeks after application
Procedure, shortened: (§2)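 Leaf-applied emulsion, water-diluted to a preset herbicide dose, on two-week-old seedlings raised in a 25° C. to 30° C. greenhouse; injury rated at 3 weeks using earlier criteria.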

Alopecurus myosuroides = experiment: Test Example 5: herbicidal effect by foliage application, plastic box (symbol J); details: 320 g/ha, 3 weeks after application
Procedure, shortened: as §2

beet = experiment: Test Example 5: effect on crop by foliage application, plastic box (symbol f); details: 320 g/ha, 3 weeks after application
Procedure, shortened: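 Foliage-application test plants come from spot sowing in sterilized diluvial soil under a soil layer of about 1.5 cm, grown at 25° C. to 30° C. in a greenhouse.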

Lolium multiflorum Lam. [5] = experiment: Test Example 5: herbicidal effect by foliage application, plastic box (symbol K); details: 320 g/ha, 3 weeks after application
Procedure, shortened: as §2

Digitaria ciliaris [6] = experiment: Test Example 5: herbicidal effect by foliage application, plastic box (symbol F); details: 320 g/ha, 3 weeks after application
Procedure, shortened: as §2

Chenopodium album [7] = experiment: Test Example 5: herbicidal effect by foliage application, plastic box (symbol O); details: 320 g/ha, 3 weeks after application
Procedure, shortened: as §2

Amaranthus retroflexus = experiment: Test Example 4: herbicidal effect by soil treatment (symbol N); details: application herbicide amount 320 g/ha
Procedure, shortened: as §1

Stellaria media = experiment: Test Example 5: herbicidal effect by foliage application, plastic box (symbol P); details: 320 g/ha, 3 weeks after application
Procedure, shortened: as §2

transplanted rice plant = experiment: Test Example 1: effect on crop, application before weed generation in submerged conditions (symbol a); details: application herbicide amount 320 g/ha
Procedure, shortened: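 Rice at 2.5 leaf stage transplanted into submerged soil (4 cm depth) sown with three weed species; herbicide applied before weed emergence.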

Chenopodium album [8] = experiment: Test Example 4: herbicidal effect by soil treatment (symbol O); details: application herbicide amount 320 g/ha
Procedure, shortened: as §1

Setaria viridis = experiment: Test Example 4: herbicidal effect by soil treatment (symbol G); details: application herbicide amount 320 g/ha
Procedure, shortened: as §1

SMILES	herbicidal effect on H (Echinochloa crus-galli var. crus-galli), grade 0-5 [1]	Herbicidal effect grade, R: Veronica persica (Veronica persica)	Effect on crop grade, e: wheat (wheat)	effect on crop b (directly sowed rice plant), grade 0-5 [2]	Herbicidal effect grade, F: Digitaria ciliaris (Digitaria ciliaris [3])	Herbicidal effect grade, K: Lolium multiflorum Lam. (Lolium multiflorum Lam. [4])	M: Abutilon theophrasti, herbicidal effect (criteria of Test Example 1) (Abutilon theophrasti)	J: Alopecurus myosuroides, herbicidal effect (criteria of Test Example 1) (Alopecurus myosuroides)	f: beet, effect on crop (criteria of Test Example 1) (beet)	K: Lolium multiflorum Lam., herbicidal effect (criteria of Test Example 1) (Lolium multiflorum Lam. [5])	F: Digitaria ciliaris, herbicidal effect (criteria of Test Example 1) (Digitaria ciliaris [6])	O: Chenopodium album, herbicidal effect (criteria of Test Example 1) (Chenopodium album [7])	Herbicidal effect grade, N: Amaranthus retroflexus (Amaranthus retroflexus)	P: Stellaria media, herbicidal effect (criteria of Test Example 1) (Stellaria media)	Effect grade on crop, a: transplanted rice plant (transplanted rice plant)	Herbicidal effect grade, O: Chenopodium album (Chenopodium album [8])	Herbicidal effect grade, G: Setaria viridis (Setaria viridis)
CON=C(C)CC1CC(OC(=O)COc2ccccc2)=C(c2c(C)cc(-c3ccc(Cl)cc3Cl)cc2C)C1=O (stereo not drawn) [6-092]	5 (Herbicidal ratio of 90% or more (almost completely withered))	0 (Herbicidal ratio of 5% or lower (almost no effect))	0 (Herbicidal ratio of 5% or lower (almost no effect))	5 (Herbicidal ratio of 90% or more (almost completely withered))	5 (Herbicidal ratio of 90% or more (almost completely withered))	5 (Herbicidal ratio of 90% or more (almost completely withered))	0 (Herbicidal ratio of 5% or lower (almost no effect))	5 (Herbicidal ratio of 90% or more (almost completely withered))	0 (Herbicidal ratio of 5% or lower (almost no effect))	5 (Herbicidal ratio of 90% or more (almost completely withered))	5 (Herbicidal ratio of 90% or more (almost completely withered))	5 (Herbicidal ratio of 90% or more (almost completely withered))	0 (Herbicidal ratio of 5% or lower (almost no effect))	3 (Herbicidal ratio of 40% or higher and lower than 70%)	0 (Herbicidal ratio of 5% or lower (almost no effect))	0 (Herbicidal ratio of 5% or lower (almost no effect))	5 (Herbicidal ratio of 90% or more (almost completely withered))
CC(=O)CC1CC(O)=C(c2c(C)cc(-c3ccccc3)cc2C)C1=O (stereo not drawn) [7-004]	5 (Herbicidal ratio of 90% or more (almost completely withered))	0 (Herbicidal ratio of 5% or lower (almost no effect))	0 (Herbicidal ratio of 5% or lower (almost no effect))	5 (Herbicidal ratio of 90% or more (almost completely withered))	5 (Herbicidal ratio of 90% or more (almost completely withered))	5 (Herbicidal ratio of 90% or more (almost completely withered))	0 (Herbicidal ratio of 5% or lower (almost no effect))	5 (Herbicidal ratio of 90% or more (almost completely withered))	0 (Herbicidal ratio of 5% or lower (almost no effect))	5 (Herbicidal ratio of 90% or more (almost completely withered))	5 (Herbicidal ratio of 90% or more (almost completely withered))	2 (Herbicidal ratio of 20% or higher and lower than 40%)	2 (Herbicidal ratio of 20% or higher and lower than 40%)	0 (Herbicidal ratio of 5% or lower (almost no effect))	5 (Herbicidal ratio of 90% or more (almost completely withered))	0 (Herbicidal ratio of 5% or lower (almost no effect))	5 (Herbicidal ratio of 90% or more (almost completely withered))
CC(=O)CC1CC(O)=C(c2c(C)cc(-c3ccc(Cl)cc3)cc2C)C1=O (stereo not drawn) [7-008]	5 (Herbicidal ratio of 90% or more (almost completely withered))	0 (Herbicidal ratio of 5% or lower (almost no effect))	1 (Herbicidal ratio of 5% or higher and lower than 20%)	5 (Herbicidal ratio of 90% or more (almost completely withered))	5 (Herbicidal ratio of 90% or more (almost completely withered))	5 (Herbicidal ratio of 90% or more (almost completely withered))	1 (Herbicidal ratio of 5% or higher and lower than 20%)	5 (Herbicidal ratio of 90% or more (almost completely withered))	0 (Herbicidal ratio of 5% or lower (almost no effect))	5 (Herbicidal ratio of 90% or more (almost completely withered))	5 (Herbicidal ratio of 90% or more (almost completely withered))	2 (Herbicidal ratio of 20% or higher and lower than 40%)	0 (Herbicidal ratio of 5% or lower (almost no effect))	1 (Herbicidal ratio of 5% or higher and lower than 20%)	5 (Herbicidal ratio of 90% or more (almost completely withered))	0 (Herbicidal ratio of 5% or lower (almost no effect))	5 (Herbicidal ratio of 90% or more (almost completely withered))
